Measured values: patent US7998940B2, “Aptamers to von Willebrand factor and their use as thrombotic disease therapeutics” (Archemix Corp., priority 2004, dated 2011)
Where two headings read alike, the source gives them in different places. Oligonucleotides are written 5' to 3', each unit as a sugar letter and its base; * is a phosphorothioate linkage, no mark a phosphodiester; rarer units and linkages stand in square brackets, end groups in braces. Plain capitals give the bases only. [PEG] = polyethylene glycol spacer within the chain; [invdT] = inverted (3'-3') thymidine; d = 2'-deoxy (DNA); m = 2'-O-methyl; r = 2'-OH (RNA); f = 2'-fluoro

Tests used:
[1] = tested on: full length human vWF (SEQ ID NO 7); test: dot blot KD determination and extent of binding, full length human vWF; conditions: for % binding @ 100 nM vWF: extent of aptamer binding at 100 nM full length human vWF; for Kd: full length human vWF, read-out: KD;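 as to all read-outs here: dot blot binding of aptamers to full length human vWF across a protein titration, incubated 30 minutes at room temperature in 1x DPBS with BSA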
[2] = tested on: rabbit vWF A1 domain (SEQ ID NO 6); test: 3-point dot blot screen, rabbit vWF A1 domain; format: binding; conditions: rRfY aptamers; 100 nM rabbit vWF A1 domain; ratio of fraction bound with target to without
Description: (§1) When a significant positive ratio of binding of RNA in the presence of human or rabbit vWF A1 domain versus in the absence of protein was seen, the pools were cloned using the TOPO TA cloning kit (Invitrogen, Cat. #45-0641, Carlsbad, Calif.) according to the manufacturer's instructions. Round 9 and 12 pool templates were cloned and sequenced (125 total sequences), producing 48 unique clones. All unique clones were transcribed, desalted, 5-^32P end-labeled, and assayed in a 3-point dot blot screen (no protein target control, 100 nM human vWF A1 domain (SEQ ID NO 5, FIG. 3), or 100 nM rabbit vWF A1 domain (SEQ ID NO 6, FIG. 3). The data is presented in the third and fourth columns of Table 4 below as the ratio of the fraction of the aptamer bound to the nitrocellulose in the presence of the target protein to the fraction of aptamer bound in the absence of the target protein.
(§2) When a significant positive ratio of binding of RNA in the presence of human or rabbit vWF A1 domain (SEQ ID NOS 4 and 6, respectively) versus in the absence of protein was seen, the pools were cloned using the TOPO TA cloning kit (Invitrogen Cat. #45-0641, Carlsbad, Calif.) according to the manufacturer's instructions. Round 9 and 12 pool templates were cloned and sequenced (185 total sequences), producing 78 unique clones within 3 sequence families. All unique clones were transcribed, desalted, 5-^32P end-labeled, and assayed in a 3-point dot blot screen (no protein target control, 100 nM human vWF A1 domain (SEQ ID NO 5), or 100 nM rabbit vWF A1 domain (SEQ ID NO 6). The data are presented in the third and fourth columns of Table 9 below as the ratio of the fraction of the aptamer bound to the nitrocellulose in the presence of the target protein to the fraction of aptamer bound in the absence of the target protein. Of the three sequence families, members of Family #1 and #2 and two individual, non-family aptamers, bound to both human vWF domain A1 (SEQ ID NO 5) and rabbit vWF domain A1 (SEQ ID NO 6).
(§3) All unique clones were assayed in a 3-point dot blot screen (no protein target control, 100 nM human vWF A1 domain (SEQ ID NO 5), or 100 nM rabbit vWF A1 domain (SEQ ID NO 6). The data are presented in the third and fourth columns of Table 14 below as the ratio of the fraction of the aptamer bound to the nitrocellulose in the presence of the target protein to the fraction of aptamer bound in the absence of the target protein.
When a significant positive ratio of binding of DNA in the presence of human or rabbit vWF A1 domain versus in the absence of protein was seen, the pools were cloned using the TOPO TA cloning kit (Invitrogen Cat. #45-0641, Carlsbad, Calif.) according to the manufacturer's instructions. Round 7 and 11 pool templates were cloned and sequenced (218 total sequences), producing 146 unique clones within 12 sequence families of which sequences from six families show vWF target binding activity. All unique clones were assayed twice in a 3-point dot blot screen (no protein target control, 20 nM full length human vWF (Calbiochem Cat. #681300, La Jolla, Calif.), or 20 nM rabbit vWF A1 domain. The data is presented in the third and fourth columns of Table 17 below as the ratio of the fraction of the aptamer bound to the nitrocellulose in the presence of the target protein to the fraction of aptamer bound in the absence of the target protein.

[3] = target: human vWF A1 domain (SEQ ID NO 5) (Homo sapiens, UniProt P04275, T1381A); test: 3-point dot blot screen, human vWF A1 domain; format: binding; conditions: rRfY aptamers; 100 nM human vWF A1 domain; ratio of fraction bound with target to fraction bound without target
Description: as §1, §2, §3

[4] = Phase 1 modification, dot blot, 8 point protein titration
[5] = Phase 3 modification, dot blot, 8 point protein titration

rabbit vWF A1 domain (SEQ ID NO 6), sequence (as listed by the source): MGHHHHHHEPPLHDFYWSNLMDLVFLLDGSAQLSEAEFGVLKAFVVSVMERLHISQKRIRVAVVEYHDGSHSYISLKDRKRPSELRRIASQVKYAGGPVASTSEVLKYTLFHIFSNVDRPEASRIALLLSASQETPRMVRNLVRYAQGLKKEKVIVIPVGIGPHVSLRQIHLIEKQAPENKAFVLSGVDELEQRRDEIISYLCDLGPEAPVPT
human vWF A1 domain (SEQ ID NO 5), sequence (P04275 with tags, fused parts or gaps T1381A): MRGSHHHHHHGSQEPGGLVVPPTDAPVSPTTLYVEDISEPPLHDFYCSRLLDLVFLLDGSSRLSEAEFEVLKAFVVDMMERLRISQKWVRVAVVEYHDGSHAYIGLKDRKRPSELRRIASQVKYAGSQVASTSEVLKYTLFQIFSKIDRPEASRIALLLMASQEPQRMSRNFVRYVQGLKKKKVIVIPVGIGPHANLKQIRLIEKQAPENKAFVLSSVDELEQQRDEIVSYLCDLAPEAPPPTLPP

Molecule: mCmGmUdGdCdAmGmUmGmCmCmUmUmCmGmGmCdCmG-s-TmGdCdGdGTmGmCdCmUdCdCmGmUmCmAmCmG-3T (mCmGmUdGdCdAmGmUmGmCmCmUmUmCmGmGmCdCmG*dTmGdCdGdGdTmGmCdCmUdCdCmGmUmCmAmCmG[invdT]; aptamer) [ARC1529]
- % binding @ 100 nM vWF ([1]; Phase 4 and 5 modification): 22.6%
- Kd ([1]; Phase 4 and 5 modification): 12.3 nM

Molecule: mCmGmGmCdCmG-s-TmGdCdGdGTmGmCdCmUdCdCmGmUmCmAmCmUmUmUmGmUdGdCdAmGmUmGmCmCmG-3T (mCmGmGmCdCmG*dTmGdCdGdGdTmGmCdCmUdCdCmGmUmCmAmCmUmUmUmGmUdGdCdAmGmUmGmCmCmG[invdT]; aptamer) [ARC1534]
- % binding @ 100 nM vWF ([1]; Phase 4 and 5 modification): 25.6%
- Kd ([1]; Phase 4 and 5 modification): 62.8 nM

Molecule: ARC1115: ARC1029 with PEG spacer replaced with a short oligonucleotide sequence, dTdTdC (DNA GGCGTGCAGTGCCTTCGGCCGTGCGGTGCCTCCGTCACGCC; unmodified DNA)
- % binding @ 100 nM vWF ([1]; Phase 1 modification): 36%
- Kd [1, 4]: 2 nM
- binding to human vWF ([1]; in words, dot blot): shown to bind

Molecule: mCmGmUdGdCdAmGmUmGmCmCPEGmGmGmCdCmG-s-TmGdCdGdGTmGmCdCmUdCdCmGmUmCmAmCmG-3T (mCmGmUdGdCdAmGmUmGmCmC[PEG]mGmGmCdCmG*dTmGdCdGdGdTmGmCdCmUdCdCmGmUmCmAmCmG[invdT]; aptamer) [ARC1532]
- % binding @ 100 nM vWF ([1]; Phase 4 and 5 modification): 19.3%
- Kd ([1]; Phase 4 and 5 modification): 2.6 nM

Molecule: ARC1228: ARC1172 with one residue replaced by 2'-O methyl residue (dGdGdCdGdTdGdCdAdGdTdGdCdCdTdTdCdGdGdCdCdGdTdGdCdGdGdTdGdCdCdTdCdCdGmUdCdAdCdGdCdC[invdT]; aptamer)
- % binding @ 100 nM vWF ([1]; Phase 1 modification): 43%
- Kd [1, 4]: 2 nM

Molecule: ARC1365: ARC1361 with single phosphorothioate phosphate backbone modification (mGmCmGmUdGdCdA*mGmUmGmCmCmUmUmCmGmGmCdCmGdTmGdCdGdGdTmGmCdCmUdCdCmGmUdCmAmCmGmC[invdT]; aptamer)
- % binding @ 100 nM vWF ([1]; Phase 3 modification): 35.4%
- Kd [1, 5]: 10.8 nM

Molecule: ARC1375: ARC1361 with single phosphorothioate phosphate backbone modification (mGmCmGmUdGdCdAmGmUmGmCmCmUmUmCmGmGmCdCmGdTmGdCdGdGdTmGmC*dCmUdCdCmGmUdCmAmCmGmC[invdT]; aptamer)
- % binding @ 100 nM vWF ([1]; Phase 3 modification): 25.5%
- Kd [1, 5]: 8.8 nM

Molecule: ARC1366: ARC1361 with single phosphorothioate phosphate backbone modification (mGmCmGmUdGdCdAmGmUmGmCmCmUmUmCmGmGmC*dCmGdTmGdCdGdGdTmGmCdCmUdCdCmGmUdCmAmCmGmC[invdT]; aptamer)
- % binding @ 100 nM vWF ([1]; Phase 3 modification): 28.9%
- Kd [1, 5]: 15.5 nM

Molecule: ARC1223: ARC1172 with one residue replaced by 2'-O methyl residue (dGdGdCdGdTdGdCdAdGdTdGdCdCdTdTdCdGdGdCdCdGdTdGdCdGdGdTdGdCmCdTdCdCdGdTdCdAdCdGdCdC[invdT]; aptamer)
- % binding @ 100 nM vWF ([1]; Phase 1 modification): 26%
- Kd [1, 4]: 36 nM

Molecule: ARC1205: ARC1172 with one residue replaced by 2'-O methyl residue (DNA dGdGdCdGdTdGdCdAdGdTdGmCdCdTdTdCdGdGdCdCdGdTdGdCdGdGdTdGdCdCdTdCdCdGdTdCdAdCdGdCdC[invdT]; aptamer)
- % binding @ 100 nM vWF ([1]; Phase 1 modification): 50%
- Kd [1, 4]: 1 nM

Molecule: mGmGmCmGmUdG-s-dC-s-dAmGmUmGmCmCmUmUmCmGmGmC-s-dCmGTmGdC-s-dG-s-dGTmGmCdCmUdC-s-dCmGmUmCmAmCmGmCmC-3T (mGmGmCmGmUdG*dC*dAmGmUmGmCmCmUmUmCmGmGmC*dCmGdTmGdC*dG*dGdTmGmCdCmUdC*dCmGmUmCmAmCmGmCmC[invdT]) [ARC1344]
- % binding @ 100 nM vWF ([1]; Phase 2 modification): 17%
- Kd ([1]; Phase 2 modification): 4.8 nM

Molecule: ARC1381: ARC1361 with single phosphorothioate phosphate backbone modification (mGmCmGmUdGdCdAmGmUmGmCmCmUmUmCmGmGmCdCmGdTmGdCdGdGdTmGmCdCmUdCdCmGmUdC*mAmCmGmC[invdT])
- % binding @ 100 nM vWF ([1]; Phase 3 modification): 35.8%
- Kd [1, 5]: 8.7 nM

Molecule: mCmCmGmGmCdCmG-s-TmGdCdGdGTmGmCdCmUdCdCmGmUmCmAmCmUmUmUmGmUdGdCdAmGmUmGmCmCmGmG-3T (mCmCmGmGmCdCmG*dTmGdCdGdGdTmGmCdCmUdCdCmGmUmCmAmCmUmUmUmGmUdGdCdAmGmUmGmCmCmGmG[invdT]; aptamer) [ARC1535]
- % binding @ 100 nM vWF ([1]; Phase 4 and 5 modification): 48.3%
- Kd ([1]; Phase 4 and 5 modification): 27.1 nM

Molecule: ARC1362: ARC1361 with single phosphorothioate phosphate backbone modification (mGmCmGmU*dGdCdAmGmUmGmCmCmUmUmCmGmGmCdCmGdTmGdCdGdGdTmGmCdCmUdCdCmGmUdCmAmCmGmC[invdT])
- % binding @ 100 nM vWF ([1]; Phase 3 modification): 34.3%
- Kd [1, 5]: 9.9 nM

Molecule: mGmGmCmGmU-s-dG-s-dC-s-dAmGmUmGmCmCmUmUmCmGmGmC-s-dCmG-s-TmG-s-dC-s-dG-s-dG-s-TmGmC-s-dCmU-s-dC-s-dCmGmUmCmAmCmGmCmC-3T (mGmGmCmGmU*dG*dC*dAmGmUmGmCmCmUmUmCmGmGmC*dCmG*dTmG*dC*dG*dG*dTmGmC*dCmU*dC*dCmGmUmCmAmCmGmCmC[invdT]) [ARC1345]
- % binding @ 100 nM vWF ([1]; Phase 2 modification): 29%
- Kd ([1]; Phase 2 modification): 12.1 nM

Molecule: ARC1203: ARC1172 with one residue replaced by 2'-O methyl residue (DNA dGdGdCdGdTdGdCdAdGmUdGdCdCdTdTdCdGdGdCdCdGdTdGdCdGdGdTdGdCdCdTdCdCdGdTdCdAdCdGdCdC[invdT]; aptamer)
- % binding @ 100 nM vWF ([1]; Phase 1 modification): 40%
- Kd [1, 4]: 3 nM

Molecule: ARC1198: ARC1172 with one residue replaced by 2'-O methyl residue (DNA dGdGdCdGmUdGdCdAdGdTdGdCdCdTdTdCdGdGdCdCdGdTdGdCdGdGdTdGdCdCdTdCdCdGdTdCdAdCdGdCdC[invdT]; aptamer)
- % binding @ 100 nM vWF ([1]; Phase 1 modification): 50%
- Kd [1, 4]: 0.9 nM

B1: AMX201.B3: rRfY aptamer clone (nucleic acid)
chain: rGrGrArGfCrGfCrAfCfUfCrArGfCfCrAfCrArGrArGfCfCfCfUrGrArGfUrGfUrAfUrGrAfUfCrGfCfCrGrArGrAfUfCfUrAfUfCrGrAfUrGfCfUfUfUfUfUfCrGrAfCfCfUfCfUfCfUrGfCfUrArGfC
- Screen- Rabbit/No Protein [2]: 1.64
- Screen- Human/No Protein [3]: 1.69

B2: AMX201.B11: rRfY aptamer clone (nucleic acid)
chain: rGrGrArGfCrGfCrAfCfUfCrArGfCfCrAfCrAfCfCrGrArGrGfCfUrGrGrAfUrAfUfCfUrAfCrGrArGrArGrGrArArGfUrGfCfUrGfCfUfUrGrArAfUfUfUfCrGrAfCfCfUfCfUfCfUrGfCfUrArGfC
- Screen- Rabbit/No Protein [2]: 1.52
- Screen- Human/No Protein [3]: 1.55
